Test [1] deals with ob/ob male mice. Kind of test: Ob/ob mouse blood glucose-lowering test. The test is classed as in vivo. As to conditions: oral 10 mg/kg bid for 9 days, non-fasting, 12 hours after final administration, n=6. The method, then:
(§1) Using 6% 2-hydroxypropyl-β-cyclodextrin as the solvent, a compound liquid was prepared. Blood glucose values were measured under non-fasting using ob/ob male mice of 9 weeks of age (blood glucose value, 300 mg/dl or more), and then arrangement into groups was carried out at random in such a manner that their blood glucose values became uniform. The compound to be tested was repeatedly orally administered (10 mg/kg, bid) twice a day for 9 days, and blood glucose values after 12 hours of the final administration were measured (n=6). The blood glucose value was measured by carrying out colorimetric determination of the amount of glucose (mg/dl) in heparin blood plasma obtained by collecting blood in a heparin-coated glass capillary and subsequently centrifuging it.

Test [2] addresses T1, human recombinant 11β-HSD1 (Homo sapiens, UniProt P28845).
T1 construct: made in house
Kind of test: Measuring test of human 11β-HSD1-inhibitory activity (HTRF cortisol detection). The format is biochemical. As to conditions: human recombinant 11β-HSD1, 20 nM cortisone, 40 μM NADPH, pH 6.6, room temperature 1 hour. The protocol: The procedure for measuring 11β-HSD1-inhibitory activity is as follows. In this connection, the enzyme reaction and measurement were carried out using a 384-well plate. The enzyme was prepared in accordance with a reference (Walker E. A. et al., Journal of Biological Chemistry, 2001, vol. 276, p. 21343-21350). The reaction was carried out by adding the compound to be tested having varied concentration to a reaction liquid consisting of 10 mM phosphate buffer (pH 6.6), 20 nM cortisone, 40 μM reduced nicotinamide adenine dinucleotide phosphate (NADPH) and human recombinant 11β-HSD1, and then incubating at room temperature for 1 hour (10 μl/well). The compound to be tested was prepared by dissolving in dimethyl sulfoxide (DMSO) to a DMSO concentration of 1% in the reaction liquid. After the enzyme reaction, the enzyme inhibitory activity was measured by detecting cortisol using a homogeneous time-resolved fluorescence method (HTRF). Each of the XL-665-labeled cortisol containing 400 μM carbenoxolone and cryptate-labeled cortisol antibody (CIS bio international) was added in 5 μl/well portions and incubated at room temperature for 2 hours, and then the fluorescence intensity was measured using a fluorophotometer (trade name: Discovery, Perkin Elmer), and the enzyme inhibitory activity was calculated from the fluorescence intensity ratio at two wavelengths (665 nm/620 nm).
(§2) The measured result was calculated by averaging the values of 3 wells of the same condition. The ratio when DMSO was added instead of the compound to be tested was regarded as 0% and the ratio when 11β-HSD1 or 11β-HSD2 was not added was regarded as 100%, thereby calculating 50% inhibition concentration of the compound to be tested as IC50 of the compound inhibitory activity.
On the technique in general: In TR-FRET formats the signal depends on donor and acceptor labels being close together.

The test system of test [3] is ob/ob male mice. Kind of test: Ob/ob mouse triglyceride-lowering test. As to conditions: oral 10 mg/kg bid for 9 days, non-fasting, 12 hours after final administration, n=6. The format is in vivo. The method, then:
as §1, with “Triglyceride” for “Blood glucose”, “age,” for “age (blood glucose value, 300 mg/dl or more),”, “triglyceride” for “blood glucose”, “Triglyceride” for “The blood glucose value”, “triglyceride” for “glucose”

The target in test [4] is T2, human recombinant 11β-HSD2 (Homo sapiens, UniProt P80365).
T2 sequence (P80365 1-405): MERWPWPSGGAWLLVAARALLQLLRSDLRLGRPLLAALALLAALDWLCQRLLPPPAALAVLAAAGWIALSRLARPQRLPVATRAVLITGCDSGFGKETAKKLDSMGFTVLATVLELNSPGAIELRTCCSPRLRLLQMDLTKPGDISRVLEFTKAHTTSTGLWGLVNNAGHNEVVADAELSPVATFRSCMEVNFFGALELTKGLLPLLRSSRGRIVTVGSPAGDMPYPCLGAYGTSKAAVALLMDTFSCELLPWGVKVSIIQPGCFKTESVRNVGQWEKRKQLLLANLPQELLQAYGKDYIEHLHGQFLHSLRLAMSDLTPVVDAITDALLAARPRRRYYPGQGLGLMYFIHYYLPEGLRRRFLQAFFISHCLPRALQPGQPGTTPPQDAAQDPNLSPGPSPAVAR
Kind of test: Measuring test of human 11β-HSD2-inhibitory activity (HTRF cortisol detection). As to conditions: human recombinant 11β-HSD2, 200 nM cortisol, 200 μM NAD, pH 8.0, 37° C. 2 hours. The format is biochemical. The protocol: Measurement of the 11β-HSD2 activity was carried out by the same method of the 11β-HSD1 activity measurement, except for the enzyme reaction conditions. The enzyme reaction was carried out by adding the compound to be tested having varied concentration to a reaction liquid consisting of 40 mM Tris-HCl buffer (pH 8.0), 200 nM cortisol, 200 μM nicotinamide adenine dinucleotide (NAD) and human recombinant 11β-HSD2, and then incubating at 37° C. for 2 hours (10 μl/well).
as §2

Where only a bound is given, the exact number is not on record here.

T1 sequence (P28845 whole entry): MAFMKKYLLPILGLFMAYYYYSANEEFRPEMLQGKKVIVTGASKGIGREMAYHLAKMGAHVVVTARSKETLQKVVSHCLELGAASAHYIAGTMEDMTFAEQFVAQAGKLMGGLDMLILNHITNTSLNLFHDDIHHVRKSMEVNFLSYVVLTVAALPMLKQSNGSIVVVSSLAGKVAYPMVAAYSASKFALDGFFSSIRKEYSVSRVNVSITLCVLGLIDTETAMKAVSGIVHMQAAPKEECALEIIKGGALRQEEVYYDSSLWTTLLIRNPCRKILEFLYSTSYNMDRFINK

`CC(C)(c1ccc(Br)s1)c1nnc(C2CC2)n1C1CC1` [Example 3, 3-[1-(5-bromo-2-thienyl)-1-methylethyl]-4,5-dicyclopropyl-4H-1,2,4-triazole] yielded a blood glucose-lowering action in the test with ob/ob male mice [1] of 27%. The figures for the IC50 in test [2] and in test [4] were 0.0079 µM and greater than 3 µM, respectively. Also, the triglyceride-lowering action with ob/ob male mice [3] is reported as 50%.

Turning to `CC(C)(c1nnc(C2CC2)n1C1CC1)n1cccc1Cl` [Example 9, 3-[1-(2-chloro-1H-pyrrol-1-yl)-1-methylethyl]-4,5-dicyclopropyl-4H-1,2,4-triazole], the IC50 in test [2] is 0.062 µM; in test [4], greater than 30 µM.

As for `CN(C1CCC1)C(C)(C)c1nnc(C2CC2)n1C1CC1` [Example 57], the IC50 in test [2] is 0.07 µM; in test [4], greater than 30 µM.

As to `CC(C)(c1cc(Br)cs1)c1nnc(C2CC2)n1C1CC1` [Example 77], the half-inhibitory concentration (IC50) in test [2] is 0.012 µM; in test [4], greater than 10 µM.

Regarding `CC(C)(c1cccc(Cl)n1)c1nnc(C2CC2)n1CCc1ccccc1` [Example 85], the IC50 was 0.034 µM in test [2] and greater than 10 µM in test [4].

Regarding `CC(C)(c1ccccn1)c1nnc(C2CC2)n1CCc1c(F)cccc1F` [Example 154], in the test on ob/ob male mice [1], the blood glucose-lowering action was 21%. The results for the IC50 in test [2] and in test [4] were 0.038 µM and greater than 30 µM, respectively.

As for `CC(C)(c1ccc(Br)s1)c1nnc(C2CC2)n1CCc1c(F)cccc1F` [Example 167], the blood glucose-lowering action in the test on ob/ob male mice [1] came out at 24%. For the same compound, the half-maximal inhibitory concentration (IC50) in test [2] is 0.07 µM; in test [4], greater than 30 µM.

Regarding `CC(C)(c1ccc(C(F)(F)F)s1)c1nnc(C2CC2)n1C1CC1` [Example 169], the concentration for half-maximal inhibition (IC50) was 0.024 µM in test [2] and greater than 10 µM in test [4].

On to `CC(C)(c1ccsc1)c1nnc(C2CC2)n1C1CC1` [Example 172], for which, in the test on ob/ob male mice [1], the blood glucose-lowering action worked out at 27%. For the same compound, the IC50 in test [2] was 0.019 µM; in test [4], greater than 10 µM.

In the case of `CC(C)(c1ccsc1)c1nnc(C2CCC2)n1C1CC1` [Example 173], the IC50 in test [2] is 0.012 µM; in test [4], greater than 10 µM.

In the case of `Fc1ccc(CCn2c(C3CC3)nnc2C2(c3ccccn3)CCC2)cc1` [Example 198], the results for the half-maximal inhibitory concentration (IC50) in test [2] and in test [4] were 0.025 µM and greater than 10 µM, respectively.

For the compound `Brc1ccn(C2(c3nnc(C4CC4)n3C3CC3)CCC2)c1` [Example 213], the values for the IC50 in test [2] and in test [4] were 0.041 µM and greater than 10 µM, respectively.

Regarding `CC(C)(c1sc(C(F)(F)F)cc1F)c1nnc(C2CC2)n1C1CC1` [Example 280], the blood glucose-lowering action with ob/ob male mice [1] came to 35%. Further, the figures for the IC50 in test [2] and in test [4] were 0.0047 µM and greater than 3 µM, respectively. Besides, the triglyceride-lowering action in the test with ob/ob male mice [3] was determined as 42%.

Consider `Cn1c(C(C)(C)C)nnc1C(C)(C)c1ccc(Cl)s1` [Example 281], for which the concentration for half-maximal inhibition (IC50) in test [2] is 0.0052 µM; in test [4], greater than 3 µM.

For the compound `Cn1c(C2(C)CC2)nnc1C(C)(C)c1ccc(Cl)s1` [Example 283], the half-maximal inhibitory concentration (IC50) is 0.0024 µM in test [2] and greater than 3 µM in test [4].

One may read the IC50 as the concentration that inhibits the measured activity by half.

The record behind these values is patent publication US20090082367A1, “TRIAZOLE DERIVATIVE OR A SALT THEREOF” (ASTELLAS PHARMA INC., priority 2006, published 2009).
